Molecular target: T1, Recombinant Human 5′-Nucleotidase (CD73) (Homo sapiens, UniProt P21589)
T1 construct: CHO derived CD73 (Trp27-Lys547), with a C-terminal 6-His tag; 6-His (C); purchased R&D 5795-EN; host or cells: CHO
T1 sequence (P21589 27-547): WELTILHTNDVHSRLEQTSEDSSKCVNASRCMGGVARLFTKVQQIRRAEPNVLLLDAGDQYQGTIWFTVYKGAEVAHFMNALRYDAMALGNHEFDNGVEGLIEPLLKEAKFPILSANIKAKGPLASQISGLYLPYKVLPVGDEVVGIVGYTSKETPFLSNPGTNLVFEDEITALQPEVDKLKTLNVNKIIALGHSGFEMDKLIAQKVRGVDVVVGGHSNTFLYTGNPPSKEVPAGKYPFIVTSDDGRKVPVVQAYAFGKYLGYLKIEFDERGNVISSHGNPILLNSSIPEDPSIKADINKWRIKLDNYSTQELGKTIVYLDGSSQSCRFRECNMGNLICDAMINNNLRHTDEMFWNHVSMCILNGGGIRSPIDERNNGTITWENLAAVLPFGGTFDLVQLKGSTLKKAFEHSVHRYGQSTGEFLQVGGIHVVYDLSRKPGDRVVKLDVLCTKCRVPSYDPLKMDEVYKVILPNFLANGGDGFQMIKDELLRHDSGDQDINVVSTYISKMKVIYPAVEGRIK
Experiment: CD73 Enzyme Assay
Assay type: biochemical
Conditions: human CD73 0.5 nM, AMP 30 μM, PiColorLock phosphate detection; read-out: Potency (IC50, CD73 enzyme assay)
Excerpt: Soluble recombinant CD73 catalyzes the conversion of adenosine monophosphate (AMP) to adenosine and inorganic phosphate. The phosphate detection reagent, PiColorLock™ (Innova Bioscience, Cat #303-0125) is based on the change in absorbance of the dye malachite green in the presence of inorganic phosphate (Pi) and this property can be exploited to measure any enzyme that generates Pi. Recombinant Human 5′-Nucleotidase (CD73) (R&D #5795-EN, CHO derived CD73 (Trp27-Lys547), with a C-terminal 6-His tag) was used in the enzymatic assay. This assay was run in a 384-well plate format (Corning® NBS™ 384 well plates, Cat #3640). The basic assay procedure involves two steps: 1) Enzyme reaction: The CD73 enzyme (R&D #5795-EN) is incubated in the presence or absence of compounds. AMP (sigma, cat #01930) is added to start the […] reaction. 2) Detection step: Gold mix is added to the assay system, then stabilizers are added. After incubation the absorbance of the solution is read at OD 635 nm. The recorded OD signal is proportional to the enzyme activity.
Briefly, 25 μl human CD73 (0.5 nM final concentration) in the enzymatic buffer solutions (20 mM Tris, 25 mM NaCl, 1 mM MgCl2, pH 7.5, 0.005% Tween-20) were mixed with various concentrations of the test compound (dissolved in 100% DMSO). These solutions were incubated for 15 min at 25° C., and subsequently 25 μl AMP (30 μM final concentration) was added to start the reaction. The final reaction mixture of enzyme-substrate-compound was incubated for 20 min at 37° C. Meanwhile ‘Gold mix’ was prepared shortly before use by adding 1/100 vol. of accelerator to the PiColorLock™ Gold reagent. 12 μL/well of the ‘Gold mix’ was added to assay plate containing 50 μL enzyme reaction buffer and incubated at 25° C. for 5 min. 5 μL/well stabilizer was added to the assay plate and incubated at 25° C. for 30 min. The absorbance of the well solutions was measured at 635 nm on a Spark 10M instrument (TECAN).
The percent (%) inhibition at each concentration of a compound was calculated relative to the OD value in the Max and Min control wells contained within each assay plate. The Max control wells contained enzyme and substrate as 0% inhibition, and the M control wells only contained substrate without enzyme as 100% inhibition. The concentrations and percent inhibition values for a test compound are plotted and the concentration of the compound required to achieve 50% inhibition (IC50) was determined with a four-parameter logistic dose response equation.

SMILES | IC50 [µM]
O=P(O)(O)CP(=O)(O)OC[C@H]1OC(c2cnc3c(NCc4ccccc4)ncnn23)[C@@H](F)[C@@H]1O (stereo in doubt) [Compound 3, [({[(2R,3R,4S,5S)-5-[4-(benzylamino)imidazo[2,1-f][1,2,4]triazin-7-yl]-4-fluoro-3-hydroxyoxolan-2-yl]methoxy}(hydroxy)phosphoryl)methyl]phosphonic Acid] | > 1
O=C1C[C@H](Nc2nc(Cl)nn3c([C@@H]4O[C@H](COP(=O)(O)CP(=O)(O)O)[C@@H](O)[C@H]4O)cnc23)CN1 [Compound 26, [({[(2R,3S,4R,5S)-5-{2-chloro-4-[(5-oxopyrrolidin-3-yl)amino]imidazo[2,1-f][1,2,4]triazin-7-yl}-3,4-dihydroxyoxolan-2-yl]methoxy}(hydroxy)phosphoryl)methyl]phosphonic acid] | 0.01 to 0.099
O=P(O)(O)CP(=O)(O)OC[C@H]1O[C@@H](c2cnc3c(N4CCC[C@@H]4c4ccccc4)nc(Cl)nn23)[C@H](O)[C@@H]1O [Compound 31, [({[(2R,3S,4R,5S)-5-{2-chloro-4-[(2R)-2-phenylpyrrolidin-1-yl]imidazo[2,1-f][1,2,4]triazin-7-yl}-3,4-dihydroxyoxolan-2-yl]methoxy}(hydroxy)phosphoryl)methyl]phosphonic Acid] | 0.01 to 0.099
CC(C)(C)[C@@H]1CCCN1c1nc(Cl)nn2c([C@@H]3O[C@H](COP(=O)(O)CP(=O)(O)O)[C@@H](O)[C@H]3O)cnc12 [Compound 38, (((((2R,3S,4R,1S)-5-(4-((S)-2-(tert-butyl)pyrrolidin-1-yl)-2-chloroimidazo[2,1-f][1,2,4]triazin-7-yl)-3,4-dihydroxytetrahydrofuran-2-yl)methoxy)(hydroxy)phosphoryl)methyl)phosphonic Acid] | 0.01 to 0.099
COP(=O)(CP(=O)(OC)OC[C@H]1O[C@@H](c2cnc3c(NC4CCCC4)nc(Cl)nn23)[C@H](O)[C@@H]1O)OC (stereo partly drawn) [Compound 57, ((2R,3S,4R,5S)-5-(2-chloro-4-(cyclopentylamino)imidazo[2,1-f][1,2,4]triazin-7-yl)-3,4-dihydroxytetrahydrofuran-2-yl)methyl methyl ((dimethoxyphosphoryl)methyl)phosphonate] | > 1
O=P(O)(CP1(=O)OCC[C@@H](c2cccc(Cl)c2)O1)OC[C@H]1O[C@@H](c2cnc3c(NC4CCCC4)nc(Cl)nn23)[C@H](O)[C@@H]1O (stereo partly drawn) [Compound 58, ((2R,3S,4R,5S)-5-(2-chloro-4-(cyclopentylamino)imidazo[2,1-f][1,2,4]triazin-7-yl)-3,4-dihydroxytetrahydrofuran-2-yl)methyl hydrogen (((4S)-4-(3-chlorophenyl)-2-oxido-1,3,2-dioxaphosphinan-2-yl)methyl)phosphonate] | 0.1 to 0.999
COP(=O)(CP1(=O)OCC[C@@H](c2cccc(Cl)c2)O1)OC[C@H]1O[C@@H](c2cnc3c(NC4CCCC4)nc(Cl)nn23)[C@H](O)[C@@H]1O (stereo partly drawn) [Compound 59, ((2R,3S,4R,5S)-5-(2-chloro-4-(cyclopentylamino)imidazo[2,1-f][1,2,4]triazin-7-yl)-3,4-dihydroxytetrahydrofuran-2-yl)methyl methyl (((4S)-4-(3-chlorophenyl)-2-oxido-1,3,2-dioxaphosphinan-2-yl)methyl)phosphonate] | > 1
O=P(O)(O)CP(=O)(O)OC[C@H]1O[C@@H](c2cnc3c(NC4CCCC4)nc(C4CC4)nn23)[C@H](O)[C@@H]1O [Compound 60, (((((2R,3S,4R,1S)-5-(4-(cyclopentylamino)-2-cyclopropylimidazo[2,1-f][1,2,4]triazin-7-yl)-3,4-dihydroxytetrahydrofuran-2-yl)methoxy)(hydroxy)phosphoryl)methyl)phosphonic Acid] | 0.1 to 0.999
N#CCCOP(=O)(CP(=O)(O)O)OC[C@H]1O[C@@H](c2cnc3c(NC4CCCC4)nc(Cl)nn23)[C@H](O)[C@@H]1O (stereo partly drawn) [Compound 69, (((((2R,3S,4R,5S)-5-(2-chloro-4-(cyclopentylamino)imidazo[2,1-f][1,2,4]triazin-7-yl)-3,4-dihydroxytetrahydrofuran-2-yl)methoxy)(2-cyanoethoxy)phosphoryl)methyl) phosphonic acid] | 0.01 to 0.099

More lines, now with the values ahead:

IC50 [µM] | SMILES
> 1 | O=P(O)(O)CP(=O)(O)OC[C@H]1O[C@H](c2cnc3c(NCc4ccccc4)ncnn23)[C@@H](F)[C@@H]1O [Compound 4, [({[(2R,3R,4S,5R)-5-[4-(benzylamino)imidazo[2,1-f][1,2,4]triazin-7-yl]-4-fluoro-3-hydroxyoxolan-2-yl]methoxy}(hydroxy)phosphoryl)methyl]phosphonic Acid]
0.01 to 0.099 | O=P(O)(O)CP(=O)(O)OC[C@H]1O[C@@H](c2cnc3c(NC4CCCC4)nc(Cl)nn23)[C@@H](F)[C@@H]1O [Compound 7, (((((2R,3R,4S,5S)-5-(2-chloro-4-(cyclopentylamino)imidazo[2,1-f][1,2,4]triazin-7-yl)-4-fluoro-3-hydroxytetrahydrofuran-2-yl)methoxy)(hydroxy)phosphoryl)methyl)phosphonic acid]
0.01 to 0.099 | O=P(O)(O)CP(=O)(O)OC[C@H]1O[C@@H](c2cnc3c(NCC4CCCO4)nc(Cl)nn23)[C@H](O)[C@@H]1O (stereo partly drawn) [Compound 13, (((((2R,3S,4R,1S)-5-(2-chloro-4-(((tetrahydrofuran-2-yl)methyl)amino)imidazo[2,1-f][1,2,4]triazin-7-yl)-3,4-dihydroxytetrahydrofuran-2-yl)methoxy)(hydroxy)phosphoryl)methyl) phosphonic Acid]
0.01 to 0.099 | CN(C)[C@H]1CC[C@H](Nc2nc(Cl)nn3c([C@@H]4O[C@H](COP(=O)(O)CP(=O)(O)O)[C@@H](O)[C@H]4O)cnc23)C1 [Compound 25, (((((2R,3S,4R,5S)-5-(2-chloro-4-(((1S,3S)-3-(dimethylamino)cyclopentyl)amino)imidazo[2,1-f][1,2,4]triazin-7-yl)-3,4-dihydroxytetrahydrofuran-2-yl)methoxy)(hydroxy)phosphoryl)methyl)phosphonic acid]
0.01 to 0.099 | CC(C)(C)[C@H]1CCCN1c1nc(Cl)nn2c([C@@H]3O[C@H](COP(=O)(O)CP(=O)(O)O)[C@@H](O)[C@H]3O)cnc12 [Compound 51, (((((2R,3S,4R,1S)-5-(4-((R)-2-(tert-butyl)pyrrolidin-1-yl)-2-chloroimidazo[2,1-f][1,2,4]triazin-7-yl)-3,4-dihydroxytetrahydrofuran-2-yl)methoxy)(hydroxy)phosphoryl)methyl)phosphonic Acid]
0.1 to 0.999 | O=P(O)(O)CP(=O)(O)OC[C@H]1O[C@@H](c2cnc3c(OC4CCCC4)ncnn23)[C@H](O)[C@@H]1O [Compound 61, (((((2R,3S,4R,1S)-5-(4-(cyclopentyloxy)imidazo[2,1-f][1,2,4]triazin-7-yl)-3,4-dihydroxytetrahydrofuran-2-yl)methoxy)(hydroxy)phosphoryl)methyl)phosphonic Acid]
0.01 to 0.099 | COCCOCCOP(=O)(CP(=O)(O)O)OC[C@H]1O[C@@H](c2cnc3c(NC4CCCC4)nc(Cl)nn23)[C@H](O)[C@@H]1O (stereo partly drawn) [Compound 67, (((((2R,3S,4R,5S)-5-(2-chloro-4-(cyclopentylamino)imidazo[2,1-f][1,2,4]triazin-7-yl)-3,4-dihydroxytetrahydrofuran-2-yl)methoxy)(2-(2-methoxyethoxy)ethoxy)phosphoryl)methyl)phosphonic acid]
